Common to all, as to details: Compound concentration 1000.0 nM
Assay [1] deals with Tyrosine-protein kinase ABL1 (Homo sapiens), P00519 [E255K].
Assay [2] concerns the target Aurora kinase C (Homo sapiens) (UniProt Q9UQB9).
The target in assay [3] is Dual specificity protein kinase CLK4 (Homo sapiens) (UniProt Q9HAZ1).
In assay [4] the test system is Epidermal growth factor receptor (Homo sapiens), P00533 [UNDEFINED MUTATION].
Assay [5] concerns the target T1, Ephrin type-A receptor 1 (Homo sapiens) (UniProt P21709).
T1 sequence (whole entry): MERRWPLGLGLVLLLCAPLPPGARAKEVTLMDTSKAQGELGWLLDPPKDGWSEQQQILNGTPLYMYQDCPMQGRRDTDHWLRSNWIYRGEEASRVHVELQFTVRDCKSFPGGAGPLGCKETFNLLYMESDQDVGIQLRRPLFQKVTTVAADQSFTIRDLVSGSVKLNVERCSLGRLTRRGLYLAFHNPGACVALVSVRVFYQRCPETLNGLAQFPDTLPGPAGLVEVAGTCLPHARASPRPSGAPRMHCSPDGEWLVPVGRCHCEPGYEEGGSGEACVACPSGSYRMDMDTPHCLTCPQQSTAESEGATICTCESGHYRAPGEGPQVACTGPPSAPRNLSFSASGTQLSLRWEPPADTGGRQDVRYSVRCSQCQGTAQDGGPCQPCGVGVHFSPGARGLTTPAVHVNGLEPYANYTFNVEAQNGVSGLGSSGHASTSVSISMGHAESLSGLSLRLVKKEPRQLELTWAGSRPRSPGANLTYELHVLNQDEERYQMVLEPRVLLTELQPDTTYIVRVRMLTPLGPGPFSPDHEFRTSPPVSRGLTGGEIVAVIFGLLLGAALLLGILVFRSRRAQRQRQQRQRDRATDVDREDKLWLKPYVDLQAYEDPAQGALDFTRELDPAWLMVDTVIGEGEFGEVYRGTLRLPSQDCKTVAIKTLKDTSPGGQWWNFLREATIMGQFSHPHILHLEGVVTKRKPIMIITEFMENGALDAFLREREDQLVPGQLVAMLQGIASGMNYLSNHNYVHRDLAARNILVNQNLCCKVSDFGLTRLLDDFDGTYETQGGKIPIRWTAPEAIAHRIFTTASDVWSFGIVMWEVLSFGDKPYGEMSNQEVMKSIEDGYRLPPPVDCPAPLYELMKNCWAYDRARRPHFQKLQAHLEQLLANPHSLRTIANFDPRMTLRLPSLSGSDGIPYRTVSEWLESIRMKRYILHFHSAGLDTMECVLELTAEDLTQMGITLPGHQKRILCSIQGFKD

Assay [6] has as its target Insulin receptor (Homo sapiens) (UniProt P06213).
Assay [7] has as its target Mitogen-activated protein kinase kinase kinase 11 (Homo sapiens) (UniProt Q16584).
In assay [8] the target is cAMP-dependent protein kinase catalytic subunit beta (Homo sapiens) (UniProt P22694).
Assay [9] deals with T2, SNF-related serine/threonine-protein kinase (Homo sapiens) (UniProt Q9NRH2).
T2 sequence (whole entry): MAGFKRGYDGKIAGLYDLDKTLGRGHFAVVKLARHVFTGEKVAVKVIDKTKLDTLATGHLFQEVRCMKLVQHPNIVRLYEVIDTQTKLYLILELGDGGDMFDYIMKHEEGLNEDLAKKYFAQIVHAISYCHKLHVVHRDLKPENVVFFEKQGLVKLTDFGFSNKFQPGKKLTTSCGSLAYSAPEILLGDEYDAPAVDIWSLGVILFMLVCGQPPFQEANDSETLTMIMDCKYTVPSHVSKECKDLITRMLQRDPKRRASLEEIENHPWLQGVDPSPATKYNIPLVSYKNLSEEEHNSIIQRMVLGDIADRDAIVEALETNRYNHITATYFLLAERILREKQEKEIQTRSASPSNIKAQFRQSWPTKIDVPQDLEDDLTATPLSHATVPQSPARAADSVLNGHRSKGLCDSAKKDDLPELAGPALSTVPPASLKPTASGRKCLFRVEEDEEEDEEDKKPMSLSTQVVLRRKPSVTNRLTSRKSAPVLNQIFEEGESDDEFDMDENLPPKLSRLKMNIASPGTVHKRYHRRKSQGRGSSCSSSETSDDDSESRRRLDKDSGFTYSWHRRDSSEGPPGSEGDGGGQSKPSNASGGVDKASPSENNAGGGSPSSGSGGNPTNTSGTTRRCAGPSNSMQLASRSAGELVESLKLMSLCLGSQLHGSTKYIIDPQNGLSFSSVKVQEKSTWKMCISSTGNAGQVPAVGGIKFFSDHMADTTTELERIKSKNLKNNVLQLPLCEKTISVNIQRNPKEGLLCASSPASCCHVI

Assay [10] has as its target SRSF protein kinase 3 (Homo sapiens) (UniProt Q9UPE1).
In assay [11] the target is TRAF2 and NCK-interacting protein kinase (Homo sapiens) (UniProt Q9UKE5).
Sequence of TRAF2 and NCK-interacting protein kinase (Homo sapiens) (Q9UKE5 whole entry, looked up): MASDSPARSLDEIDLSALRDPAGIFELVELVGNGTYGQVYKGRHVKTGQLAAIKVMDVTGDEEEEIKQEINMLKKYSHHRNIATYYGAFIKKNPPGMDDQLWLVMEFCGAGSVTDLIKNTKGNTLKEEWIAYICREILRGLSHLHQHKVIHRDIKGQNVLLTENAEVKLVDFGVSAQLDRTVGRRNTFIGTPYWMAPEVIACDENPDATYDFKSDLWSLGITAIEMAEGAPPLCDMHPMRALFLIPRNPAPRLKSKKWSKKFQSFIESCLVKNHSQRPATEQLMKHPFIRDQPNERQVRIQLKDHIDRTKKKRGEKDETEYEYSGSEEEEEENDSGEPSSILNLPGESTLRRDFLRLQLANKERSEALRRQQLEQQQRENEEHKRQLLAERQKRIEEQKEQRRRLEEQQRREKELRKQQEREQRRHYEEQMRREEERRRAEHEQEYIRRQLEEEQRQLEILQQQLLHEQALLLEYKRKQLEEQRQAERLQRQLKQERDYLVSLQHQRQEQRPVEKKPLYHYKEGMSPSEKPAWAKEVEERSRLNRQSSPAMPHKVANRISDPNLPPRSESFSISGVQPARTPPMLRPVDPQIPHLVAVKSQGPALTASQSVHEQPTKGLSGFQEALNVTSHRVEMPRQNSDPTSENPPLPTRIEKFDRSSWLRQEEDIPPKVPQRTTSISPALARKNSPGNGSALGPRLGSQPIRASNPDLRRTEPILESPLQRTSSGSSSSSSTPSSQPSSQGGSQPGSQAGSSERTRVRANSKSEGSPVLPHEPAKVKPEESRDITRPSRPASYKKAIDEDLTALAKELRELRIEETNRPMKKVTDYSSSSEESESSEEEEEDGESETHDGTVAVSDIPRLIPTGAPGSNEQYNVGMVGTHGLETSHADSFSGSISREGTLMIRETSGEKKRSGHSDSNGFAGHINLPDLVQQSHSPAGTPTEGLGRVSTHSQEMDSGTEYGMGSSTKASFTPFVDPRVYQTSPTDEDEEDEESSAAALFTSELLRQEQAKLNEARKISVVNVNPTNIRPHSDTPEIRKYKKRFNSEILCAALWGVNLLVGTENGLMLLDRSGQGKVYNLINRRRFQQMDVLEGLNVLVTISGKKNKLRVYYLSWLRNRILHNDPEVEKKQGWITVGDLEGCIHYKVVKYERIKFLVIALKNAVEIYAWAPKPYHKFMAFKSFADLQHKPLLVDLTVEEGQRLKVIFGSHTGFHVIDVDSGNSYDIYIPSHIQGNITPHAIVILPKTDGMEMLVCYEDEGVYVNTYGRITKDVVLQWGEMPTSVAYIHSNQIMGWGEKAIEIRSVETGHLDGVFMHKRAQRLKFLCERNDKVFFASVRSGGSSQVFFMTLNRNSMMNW
Assay [12] addresses Serine/threonine-protein kinase WNK1 (Homo sapiens) (UniProt Q9H4A3).
Assay [13] deals with Mitogen-activated protein kinase kinase kinase 19 (Homo sapiens) (UniProt Q56UN5).

Sequence of Tyrosine-protein kinase ABL1 (Homo sapiens), P00519 [E255K] (P00519 whole entry E255K): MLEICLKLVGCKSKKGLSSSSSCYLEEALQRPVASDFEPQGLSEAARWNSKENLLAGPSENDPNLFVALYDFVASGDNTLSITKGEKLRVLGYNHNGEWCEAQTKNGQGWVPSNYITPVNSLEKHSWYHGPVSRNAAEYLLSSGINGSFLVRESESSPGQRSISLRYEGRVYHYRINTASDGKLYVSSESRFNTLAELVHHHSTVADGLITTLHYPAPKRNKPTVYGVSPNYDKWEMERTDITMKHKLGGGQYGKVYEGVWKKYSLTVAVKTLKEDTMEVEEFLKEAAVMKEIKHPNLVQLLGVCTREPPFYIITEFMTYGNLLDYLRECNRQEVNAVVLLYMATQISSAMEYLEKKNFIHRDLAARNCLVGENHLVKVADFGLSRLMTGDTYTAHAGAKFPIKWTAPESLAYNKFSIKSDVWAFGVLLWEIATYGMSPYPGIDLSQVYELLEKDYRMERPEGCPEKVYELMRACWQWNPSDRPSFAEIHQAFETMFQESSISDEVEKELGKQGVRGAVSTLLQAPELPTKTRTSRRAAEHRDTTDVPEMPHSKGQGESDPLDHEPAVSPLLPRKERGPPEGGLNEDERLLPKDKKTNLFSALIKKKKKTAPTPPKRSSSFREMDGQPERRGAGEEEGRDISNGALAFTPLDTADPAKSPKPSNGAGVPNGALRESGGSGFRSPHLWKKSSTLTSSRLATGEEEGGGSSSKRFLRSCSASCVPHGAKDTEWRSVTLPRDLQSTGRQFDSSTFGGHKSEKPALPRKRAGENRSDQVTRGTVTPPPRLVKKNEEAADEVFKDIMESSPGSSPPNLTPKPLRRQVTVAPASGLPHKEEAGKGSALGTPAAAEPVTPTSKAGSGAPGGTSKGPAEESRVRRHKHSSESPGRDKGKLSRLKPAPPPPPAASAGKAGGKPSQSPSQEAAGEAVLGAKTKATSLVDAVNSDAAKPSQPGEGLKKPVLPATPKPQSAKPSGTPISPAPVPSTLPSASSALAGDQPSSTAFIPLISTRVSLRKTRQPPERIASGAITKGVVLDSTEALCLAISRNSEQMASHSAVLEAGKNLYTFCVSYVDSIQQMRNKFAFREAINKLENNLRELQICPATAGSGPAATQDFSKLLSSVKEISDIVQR
Sequence of Serine/threonine-protein kinase WNK1 (Homo sapiens) (Q9H4A3 whole entry, looked up): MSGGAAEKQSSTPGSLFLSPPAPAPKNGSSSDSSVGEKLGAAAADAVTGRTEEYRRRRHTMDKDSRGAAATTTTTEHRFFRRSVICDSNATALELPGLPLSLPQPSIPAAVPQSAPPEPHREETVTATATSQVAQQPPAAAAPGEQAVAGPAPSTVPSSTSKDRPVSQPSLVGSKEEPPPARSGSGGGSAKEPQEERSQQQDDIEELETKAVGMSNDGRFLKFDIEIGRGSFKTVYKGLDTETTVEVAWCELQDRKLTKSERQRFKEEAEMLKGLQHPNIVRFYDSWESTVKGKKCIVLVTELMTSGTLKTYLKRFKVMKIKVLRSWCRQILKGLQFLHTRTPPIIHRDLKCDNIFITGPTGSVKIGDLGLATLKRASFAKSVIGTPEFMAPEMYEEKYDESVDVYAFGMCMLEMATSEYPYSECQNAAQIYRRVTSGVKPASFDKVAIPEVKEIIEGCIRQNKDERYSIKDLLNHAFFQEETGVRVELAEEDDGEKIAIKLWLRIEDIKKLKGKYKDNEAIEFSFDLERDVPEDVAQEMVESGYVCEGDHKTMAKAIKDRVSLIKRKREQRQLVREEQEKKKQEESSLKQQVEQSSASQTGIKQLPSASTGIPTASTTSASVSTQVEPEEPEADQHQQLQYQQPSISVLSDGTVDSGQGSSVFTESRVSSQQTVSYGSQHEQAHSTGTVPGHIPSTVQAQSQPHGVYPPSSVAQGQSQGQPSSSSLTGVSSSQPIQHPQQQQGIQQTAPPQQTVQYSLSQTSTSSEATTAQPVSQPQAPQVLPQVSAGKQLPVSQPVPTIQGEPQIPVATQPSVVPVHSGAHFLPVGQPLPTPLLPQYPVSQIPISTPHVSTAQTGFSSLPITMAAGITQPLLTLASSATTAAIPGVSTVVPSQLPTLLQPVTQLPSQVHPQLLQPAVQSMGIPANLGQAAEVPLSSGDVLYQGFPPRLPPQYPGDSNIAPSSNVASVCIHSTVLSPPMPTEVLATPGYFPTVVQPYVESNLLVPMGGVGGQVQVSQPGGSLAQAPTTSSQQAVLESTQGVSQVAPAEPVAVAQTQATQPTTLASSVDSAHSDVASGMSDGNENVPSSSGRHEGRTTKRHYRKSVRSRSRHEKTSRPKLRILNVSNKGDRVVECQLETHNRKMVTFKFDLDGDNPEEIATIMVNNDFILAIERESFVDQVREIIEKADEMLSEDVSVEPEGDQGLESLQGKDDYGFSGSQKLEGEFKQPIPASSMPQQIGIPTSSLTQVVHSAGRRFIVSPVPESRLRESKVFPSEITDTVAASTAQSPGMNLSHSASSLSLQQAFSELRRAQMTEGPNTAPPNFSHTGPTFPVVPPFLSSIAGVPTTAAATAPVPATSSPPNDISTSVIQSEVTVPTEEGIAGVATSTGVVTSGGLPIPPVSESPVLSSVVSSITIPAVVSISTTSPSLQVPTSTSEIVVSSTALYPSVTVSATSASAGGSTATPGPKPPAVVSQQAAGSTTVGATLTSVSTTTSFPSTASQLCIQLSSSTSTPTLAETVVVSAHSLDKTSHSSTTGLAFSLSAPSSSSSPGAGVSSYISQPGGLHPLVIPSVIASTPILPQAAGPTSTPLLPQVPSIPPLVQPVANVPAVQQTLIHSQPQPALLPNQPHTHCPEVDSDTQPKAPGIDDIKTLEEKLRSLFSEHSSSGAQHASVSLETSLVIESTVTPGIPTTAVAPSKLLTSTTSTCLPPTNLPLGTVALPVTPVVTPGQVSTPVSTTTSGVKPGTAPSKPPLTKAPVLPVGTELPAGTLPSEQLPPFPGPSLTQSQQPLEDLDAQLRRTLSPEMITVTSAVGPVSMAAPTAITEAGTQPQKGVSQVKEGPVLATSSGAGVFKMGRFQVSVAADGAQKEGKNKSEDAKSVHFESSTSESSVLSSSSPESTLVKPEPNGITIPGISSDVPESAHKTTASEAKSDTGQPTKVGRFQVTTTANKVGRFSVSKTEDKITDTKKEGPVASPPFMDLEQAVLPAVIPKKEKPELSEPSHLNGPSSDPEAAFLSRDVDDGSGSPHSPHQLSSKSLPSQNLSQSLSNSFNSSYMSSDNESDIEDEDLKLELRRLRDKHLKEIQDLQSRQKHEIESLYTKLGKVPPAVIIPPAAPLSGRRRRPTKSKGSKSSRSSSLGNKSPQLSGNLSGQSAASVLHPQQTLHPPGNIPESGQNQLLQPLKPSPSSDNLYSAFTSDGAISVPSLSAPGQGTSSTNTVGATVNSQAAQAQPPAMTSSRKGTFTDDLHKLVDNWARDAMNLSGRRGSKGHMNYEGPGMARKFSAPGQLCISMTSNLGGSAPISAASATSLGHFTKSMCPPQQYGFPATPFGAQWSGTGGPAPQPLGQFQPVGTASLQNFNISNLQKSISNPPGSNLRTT

For the molecule `CC1=C(C#N)C(c2ccc3c(c2)c(NC(=O)c2ccccc2C)nn3C)C(C#N)=C(C)N1` [BAY-974], the residual activity is 63% in assay [1]; 97% in assay [2]; 76% in assay [3]; 52% in [4]; 88% in [5]; 100% in [6]. The residual activity in assay [7] is 96%; in assay [8] it was 100%; in assay [9], 100%; in assay [10], 100%; in assay [11], 98%; in [12] it was 82%. Besides, the residual activity in assay [13] is 82%.
For the molecule `CCc1ccccc1C(=O)Nc1n[nH]c2c(C)c(F)c(C3C(C#N)=C(C)N(C)C(C)=C3C#N)cc12` [BAY-3827], the residual activity in assay [1] is 88%; in [2] it was 29%; in assay [3] it was 100%; in assay [4], 62%; in assay [5] it was 60%; in assay [6], 100%. Besides, the residual activity was 88% in [7]; 99% in assay [8]; 100% in assay [9]; 100% in [10]; 78% in assay [11]; 100% in assay [12]. In addition, the residual activity in assay [13] is 74%.

Source of the values: ChEMBL document CHEMBL4507319 (2021).
